Data: patent US9573961B2, “Inhibitors of the renal outer medullary potassium channel” (Merck Sharp & Dohme Corp., priority 2012, dated 2017)
Where two headings read alike, the source gives them in different places.

Molecular target: Kir1.1 (ROMK1) (Homo sapiens (Human), UniProt P48048)
Assay: Electrophysiology Assay (whole cell voltage clamp, IonWorks Quattro)
Assay type: cell-based
Details: block during voltage step to 0 mV
Protocol: Chinese hamster ovary cells stably expressing Kir1.1 channels were maintained in T-75 flasks in cell culture media in a humidified 10% CO2 incubator at 37° C. Prior to an experiment, Kir1.1 expression was induced by overnight incubation with 1 mM sodium butyrate. […] After centrifugation, the cell pellet was resuspended in approximately 4.0 mL of bath solution and placed in the IonWorks instrument. The intracellular solution consisted of (in mM): 80 K gluconate, 40 KCl, 20 KF, 3.2 MgCl2, 3 EGTA, 5 Hepes, pH 7.4. Electrical access to the cytoplasm was achieved by perforation in 0.13 mg/mL amphotericin B for 4 min. […] Voltage protocols and current recordings were performed using the IonWorks HT software/hardware system. Currents were sampled at 1 kHz. No correction for liquid junction potentials was used. The test pulse, consisting of a 100 ms step to 0 mV from a holding potential of −70 mV, followed by a 100 ms voltage ramp from −70 mV to +70 mV, was applied before and after a 6 min compound incubation period. Test compounds were prepared by diluting DMSO stock solutions into the bath solution at 3× the final concentration and placed in the instrument in 96-well polypropylene plates. Current amplitudes were measured using the IonWorks software.

[1] = Electrophysiology IC50, Chinese hamster ovary cells stably expressing Kir1.1
[2] = Chinese hamster ovary cells stably expressing Kir1.1, read-out: Electrophysiology IC50

Chain of Kir1.1 (ROMK1) (P48048 whole entry): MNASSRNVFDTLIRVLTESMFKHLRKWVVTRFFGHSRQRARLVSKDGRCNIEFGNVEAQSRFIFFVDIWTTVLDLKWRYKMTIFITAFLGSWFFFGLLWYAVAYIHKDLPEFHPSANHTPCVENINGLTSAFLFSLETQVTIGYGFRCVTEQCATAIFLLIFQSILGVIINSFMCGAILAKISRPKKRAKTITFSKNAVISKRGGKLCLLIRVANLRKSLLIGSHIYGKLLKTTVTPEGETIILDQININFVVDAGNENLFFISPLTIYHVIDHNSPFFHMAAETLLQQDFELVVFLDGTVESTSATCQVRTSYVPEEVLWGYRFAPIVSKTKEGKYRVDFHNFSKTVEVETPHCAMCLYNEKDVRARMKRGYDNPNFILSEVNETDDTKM

Compound: N#Cc1cc([C@@H]2CN3CCN(C(=O)Cc4cc(F)c(C#N)cc4F)C[C@H]3CO2)ccc1F [Example 5, 4-{2-[(3R,9aS)-3-(3-cyano-4-fluorophenyl)hexahydropyrazino[2,1-c][1,4]oxazin-8(1H)-yl]-2-oxoethyl}-2,5-difluorobenzonitrile]
- IC50 [1]: 120 nM

Compound: N#Cc1cc([C@H]2CN3CCN(C(=O)C4CCc5cc(-n6cnnn6)ccc54)C[C@H]3CO2)ccc1F (stereo partly drawn) [Example 3, 2-fluoro-5-[(3S,9aS)-8-{[5-(1H-tetrazol-1-yl)-2,3-dihydro-1H-inden-1-yl]carbonyl}octahydropyrazino[2,1-c][1,4]oxazin-3-yl]benzonitrile]
- IC50 [2]: 180 nM

Compound: O=C1OCc2cc([C@H]3CN4CCN(C(=O)C5CCc6cc(-n7cnnn7)ccc65)C[C@H]4CO3)ccc21 (stereo partly drawn) [Example 11, 5-[(3S,9aS)-8-{[5-(1H-tetrazol-1-yl)-2,3-dihydro-1H-inden-1-yl]carbonyl}octahydropyrazino[2,1-c][1,4]oxazin-3-yl]-2-benzofuran-1(3H)-one]
- IC50 [2]: 340 nM

Compound: O=C1OCc2cc([C@@H]3CN4CCN(C(=O)Cc5ccc(-n6cnnn6)cc5)C[C@H]4CO3)ccc21 [Example 8, 5-[(3R,9aS)-8-{[4-(1H-tetrazol-1-yl)phenyl]acetyl}octahydropyrazino[2,1-c][1,4]oxazin-3-yl]-2-benzofuran-1(3H)-one]
- IC50 [2]: 140 nM

Compound: Cc1c([C@H]2CN3CCN(C(=O)C4Cc5ccc(-n6cnnn6)cc5C4)C[C@H]3CO2)ccc(F)c1C#N (stereo partly drawn) [Example 74, 6-fluoro-2-methyl-3-[(3S,9aS)-8-{[5-(1H-tetrazol-1-yl)-2,3-dihydro-1H-inden-2-yl]carbonyl}octahydropyrazino[2,1-c][1,4]oxazin-3-yl]benzonitrile]
- IC50 [2]: 160 nM

Compound: COc1cc(CC(=O)N2CCN3C[C@@H](c4ccc5c(c4C)COC5=O)OC[C@@H]3C2)c(F)cc1C#N [Example 17, 5-fluoro-2-methoxy-4-{2-[(3R,9aS)-3-(4-methyl-1-oxo-1,3-dihydro-2-benzofuran-5-yl)hexahydropyrazino[2,1-c][1,4]oxazin-8(1H)-yl]-2-oxoethyl}benzonitrile]
- IC50 [2]: 160 nM

Compound: COc1cc(CC(=O)N2CCN3C[C@H](c4ccc5c(c4C)COC5=O)OC[C@@H]3C2)c(F)cc1C#N [Example 16, 5-fluoro-2-methoxy-4-{2-[(3S,9aS)-3-(4-methyl-1-oxo-1,3-dihydro-2-benzofuran-5-yl)hexahydropyrazino[2,1-c][1,4]oxazin-8(1H)-yl]-2-oxoethyl}benzonitrile]
- IC50 [2]: 180 nM

Compound: Cc1c([C@H]2CN3CCN(C(=O)Cc4ccc(-n5cnnn5)cc4)C[C@H]3CO2)ccc2c1COC2=O [Example 1B, 4-methyl-5-[(3S,9aS)-8-{[4-(1H-tetrazol-1-yl)phenyl]acetyl}octahydropyrazino[2,1-c][1,4]oxazin-3-yl]-2-benzofuran-1(3H)-one]
- IC50 [1]: 330 nM

Compound: COc1cc(CC(=O)N2CCN3C[C@H](c4ccc5c(c4)COC5=O)OC[C@@H]3C2)c(F)cc1C#N [Example 9, 5-fluoro-2-methoxy-4-{2-oxo-2-[(3S,9aS)-3-(1-oxo-1,3-dihydro-2-benzofuran-5-yl)hexahydropyrazino[2,1-c][1,4]oxazin-8(1H)-yl]ethyl}benzonitrile]
- IC50 [2]: 140 nM

Compound: N#Cc1cc([C@@H]2CN3CCN(C(=O)C4CCc5cc(-n6cnnn6)ccc54)C[C@H]3CO2)ccc1F (stereo partly drawn) [Example 4, 2-fluoro-5-[(3R,9aS)-8-{[5-(1H-tetrazol-1-yl)-2,3-dihydro-1H-inden-1-yl]carbonyl}octahydropyrazino[2,1-c][1,4]oxazin-3-yl]benzonitrile]
- IC50 [2]: 190 nM

Compound: O=C1OCc2cc([C@@H]3CN4CCN(C(=O)C5CCc6cc(-n7cnnn7)ccc65)C[C@H]4CO3)ccc21 (stereo partly drawn) [Example 12, 5-[(3R,9aS)-8-{[5-(1H-tetrazol-1-yl)-2,3-dihydro-1H-inden-1-yl]carbonyl}octahydropyrazino[2,1-c][1,4]oxazin-3-yl]-2-benzofuran-1(3H)-one]
- IC50 [2]: 250 nM
